Measured values as given in article PMC6240096, “A hPSC-based platform to discover gene-environment interactions that impact human β-cell and dopamine neuron survival” (Nature Communications, 2018).

Legend:
MIN6 cells [1] = experiment: MIN6 cell survival inhibitory curve; type: cell-based, mouse; conditions: cell survival rate; read-out: IC50, MIN6 cell death
MIN6 cells [2] = experiment: Autophagy marker LC3-II western blotting; type: cell-based, mouse; conditions: 0.8 µM or 1.6 µM propargite
Description: To extract intracellular protein, cells were placed on ice, washed twice with ice-cold PBS and lysed immediately with RIPA buffer (Life Technologies, 89900) supplemented with a protease inhibitor cocktail (Life Technologies, 78440). Cell lysates were then sonicated and the soluble fraction was collected after centrifugation. Protein amount was quantified by the BCA protein assay (Life Technologies, 23227). To extract extracellular HMGB1, tissue culture media were collected and concentrated using Afyon SDS-PAGE sample preparation kit (advansta, K-02101-025). 20 μg of total protein for each sample was mixed with loading buffer and incubated for 5 min at 95 °C before being loaded into NuPAGE® Novex® 4–12% […] Protein Gels (Life Technologies, NP0321BOX) for electrophoresis. Separated proteins were transferred to a PVDF membrane (Millipore, IPSN07852) after electrophoresis. […] ECL signals were developed and detected using the SuperSignal™ West Femto Maximum Sensitivity Substrate (Life Technologies, 34094) and a C-DiGit Chemiluminescent Western Blot Scanner (LI-COR). […]
cells. (b, c) Flow cytometry analysis (b) and quantification (c) of the percentage of […]
Etoposide was used as a positive control. Values presented as mean±S.D. (d, e) Immunocytochemistry analysis (d) and quantification (e) of the percentage of Active Caspase-3+ cells in 1.6 µM propargite treated MIN6 cells (n=3). […]

2-(4-tert-butylphenoxy)-cyclohexyl prop-2-yne-1-sulfonate [propargite]
IC50 (MIN6 cells [1]): 1000 nM
relative levels of LC3-II (MIN6 cells [2]): no significant increase
